Key:
[1] = tested on: HepG2-A16-CD81 hepatocytes; experiment: HepG2 cytotoxicity screening (CellTiter-Glo); conditions: for HepG2 cytotoxicity 12pt dose response: Maximum inhibition (%): 12pt dose response
[2] = HepG2 cytotoxicity screening (CellTiter-Glo); conditions: human, uninfected HepG2-A16-CD81 (EGFP) hepatocytes
[3] = target: recombinant firefly luciferase (Photinus pyralis, UniProt P08659); experiment: biochemical; conditions: dose response; for Emax: maximum inhibition, read-out: rLuc inhibition dose response: Maximum inhibition (%); for IC50: read-out: rLuc inhibition dose response: IC50
Chain of recombinant firefly luciferase (P08659 whole entry): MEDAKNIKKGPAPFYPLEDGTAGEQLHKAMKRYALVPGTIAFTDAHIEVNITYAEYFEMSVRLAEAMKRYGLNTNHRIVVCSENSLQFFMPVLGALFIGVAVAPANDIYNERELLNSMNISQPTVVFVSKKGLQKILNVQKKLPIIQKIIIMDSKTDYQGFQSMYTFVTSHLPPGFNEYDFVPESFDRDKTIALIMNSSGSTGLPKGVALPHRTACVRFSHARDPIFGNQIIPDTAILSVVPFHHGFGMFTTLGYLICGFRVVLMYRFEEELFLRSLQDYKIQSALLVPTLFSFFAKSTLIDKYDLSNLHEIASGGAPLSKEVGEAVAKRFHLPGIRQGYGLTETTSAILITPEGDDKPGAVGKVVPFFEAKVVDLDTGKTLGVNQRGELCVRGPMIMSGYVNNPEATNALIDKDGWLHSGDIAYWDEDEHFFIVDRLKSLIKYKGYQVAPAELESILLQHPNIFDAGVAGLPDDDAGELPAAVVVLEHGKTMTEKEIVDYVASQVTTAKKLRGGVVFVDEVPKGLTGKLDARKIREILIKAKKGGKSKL

[4] = tested on: P. berghei liver stage (PbLuc); experiment: P. berghei luciferase liver stage (PbLuc) assay in HepG2-A16-CD81 hepatocytes; assay type: cell-based, Plasmodium berghei; conditions: Plasmodium berghei; for IC50: HepG2-A16-CD81, 12pt dose response, read-out: PbLuc 12pt dose response: IC50; for Emax: HepG2-A16-CD81, 48 h, 12pt dose response, maximum inhibition

SMILES	HepG2 cytotoxicity 12pt dose response: Maximum inhibition (%) [1] [%]	IC50 [2] [µM]	inhibition at 2 µM [2] [%]	Emax [3] [%]	IC50 [3] [µM]	IC50 [4] [µM]	Emax [4] [%]	HepG2 Cytotoxicity primary screen (2uM): % Inhibition [1] [%]
O=C(NC1CCCC1)O[C@H]1COCCN(c2nc3ccccc3s2)C1 [UCSD-0785020]	-1.51	> 25	0.48	16.5	> 25	6.66	88.1	–
CCS(=O)(=O)N1CCc2ccc(NC(=O)Nc3cccc(C)c3)cc21 [UCSD-0785768]	52.3	> 16.6	27.5	36.5	> 50	3.66	77.6	–
CCS(=O)(=O)N1CCc2ccc(NC(=O)Nc3cccc(F)c3)cc21 [UCSD-0785772]	50.2	17.8	17.6	22.1	> 25	9.31	90.3	–
Cc1nc(NC(=O)c2c(-n3cnnn3)sc3c2CCCC3)sc1C [UCSD-0786506]	4.09	> 50	10.9	15	> 50	0.253	88.6	–
Cc1nc(NC(=O)c2c(-n3cnnn3)sc(C)c2C)sc1C [UCSD-0786548]	8.84	> 25	4.63	1.63	> 25	0.0144	–	–
CC(C)Cn1ccc2c(NC(=O)c3n[nH]c4c3CCC4)cccc21 [UCSD-0786893]	32.3	> 25	–	38.5	> 25	13.6	–	3.16
CCCc1cc(=O)[nH]c(-n2nc(C3CC3)cc2N)n1 [UCSD-0786964]	75.4	20.5	-26.2	12.2	> 25	4.69	–	–
CC(C)c1cc(=O)[nH]c(-n2nc(C3CC3)cc2N)n1 [UCSD-0786965]	73.6	18.9	3.79	1.26	> 25	1.61	83	–
Cc1cc(NC(=O)C(C)C)n(-c2nc(C)c(C)c(=O)[nH]2)n1 [UCSD-0786977]	36.8	> 25	–	12.4	> 50	0.129	100	–
Cc1cc(C(=O)N2CCN(c3nc4c(C(C)C)cccc4s3)CC2)no1 [UCSD-0787009]	1.29	> 25	–	34.2	> 50	0.822	98.9	–
Cc1cc(C(=O)N2CCN(c3nc4c(C(C)C)cccc4s3)CC2)on1 [UCSD-0787150]	21.7	> 25	–	11.6	> 50	4	101	–
CCc1cc(=O)[nH]c(-n2nc(C3CC3)cc2NC(=O)C2CC2)n1 [UCSD-0787226]	54	> 25	-1.99	8.54	> 25	0.35	92.4	–
CCc1c(C)nc(-n2nc(C3CC3)cc2NC(C)=O)[nH]c1=O [UCSD-0787229]	3.74	> 25	–	16.1	> 50	0.0826	97.2	–
O=S(=O)(c1ccc(Cl)s1)N1CCN(Cc2nc(-c3ccco3)cs2)CC1 [UCSD-0787251]	65.6	22	–	13.6	> 25	11	93.6	12.14

— publication PMC7155171, “Probing the Open Global Health Chemical Diversity Library for Multistage-Active Starting Points for Next-Generation Antimalarials” (ACS Infectious Diseases, 2020)
